Data taken from patent publication US11110088B2, “Imidazopyrazine inhibitors of Bruton's tyrosine kinase” (Acerta Pharma B.V., priority 2015, dated 2021).

Legend:
[1] = biological target: BTK (Homo sapiens (Human), UniProt Q06187); assay: BTK enzyme activity, IMAP assay; format: biochemical; details: 60 min pre-incubation; 5 μM ATP
Procedure: BTK enzyme activity is measured using the IMAP (immobilized metal ion affinity-based fluorescence polarization) assay as outlined below.
BTK enzyme (His-BTK (Millipore catalog #14-552)), is diluted to 0.4 U/mL in KR buffer (10 mM Tris-HCl, 10 mM MgCl2, 0.01% Tween-20, 0.05% NaN3, 1 mM DTT, 2 mM MnCl2, pH 7.2).
(§1) Serial dilutions log 10 from 2 mM to 63.2 nM of test compounds are made in 100% DMSO. The dilutions in DMSO are then diluted 50-fold in KR-buffer. Final compound concentration range in the assay ranged from 10 μM to 0.316 nM.
The assay is performed as follows: 5 μL/well of test compound in KR buffer (final DMSO concentration in the assay is 1%) is mixed with 5 µl/well of 0.4 U/mL BTK enzyme (final concentration in the assay is 0.1 U/mL). Test compounds and BTK enzyme are pre-incubated 60 minutes at room temperature, before adding 5 μL/well of 200 nM Fluorescin labeled substrate peptide (Blk/Lyntide substrate, e.g. #R7188/#R7233, Molecular Devices) in KR-buffer. Final peptide substrate concentration in assay is 50 nM. […] Following incubation for 2 hours at room temperature the enzyme reaction is stopped by adding 40 μL/well IMAP Progressive Binding Solution (according to suppliers (Molecular Devices) protocol using 75% 1× buffer A and 25% 1× buffer B with 1:600 Progressive Binding Solution). After 60 min incubation at room temperature in the dark the FP signal is read. Fluorescence at 535 nm is measured using parallel and perpendicular filters to determine differences in rotation due to binding of the phosphorylated substrate peptide to the beads. Values are calculated as percentage of the difference in readout (ΔmPi) of the controls with and without ATP. IC50 values are determined by curve fitting of the experimental results using Activity Base.

[2] = biological target: EGFR WT (Homo sapiens (Human), UniProt P00533); assay: EGFR enzyme activity, IMAP assay; format: biochemical; details: 60 min pre-incubation; 2 μM ATP
Procedure: EGFR enzyme activity is measured using the IMAP (immobilized metal ion affinity-based fluorescence polarization) assay as outlined below.
EGFR enzyme (Invitrogen catalog #PR7295B), is diluted to 2.5 μg/mL in KR buffer (10 mM Tris-HCl, 10 mM MgCl2, 0.01% Tween-20, 0.1% NaN3, 1 mM DTT, 2 mM MnCl2, pH 7.5).
Final peptide substrate concentration in assay is 50 nM. […] Following incubation for 60 min at room temperature in the dark the enzyme reaction is stopped by adding 40 μL/well IMAP Progressive Binding Solution (according to suppliers (Molecular Devices) protocol using 20% 1× buffer A and 80% 1× buffer B with 600× diluted beads). After 60 min incubation at room temperature in the dark the FP signal is read. […] Values are calculated as percentage of the difference in readout (ΔmPi) of the controls with and without ATP. IC50 values are determined by curve fitting of the experimental results using GraphPad Prism6.

[3] = biological target: Bmx (Homo sapiens (Human), UniProt P51813); assay: BMX enzyme activity, IMAP assay; format: biochemical; details: 60 min pre-incubation; 5 μM ATP
Procedure: BMX enzyme activity is measured using the IMAP (immobilized metal ion affinity-based fluorescence polarization) assay as outlined below.
(§2) The dilutions in DMSO are then diluted 50-fold in KR-buffer.
(§3) Test compounds and BMX enzyme are pre-incubated 60 minutes at room temperature, before adding 5 μL/well of 200 nM Fluorescin labeled substrate peptide (Blk/Lyntide substrate #R7188, Molecular Devices) in KR-buffer. Final peptide substrate concentration in assay is 50 nM. […] IC50 values are determined by curve fitting of the experimental results using Activity Base.

[4] = biological target: Txk (Homo sapiens (Human), UniProt P42681); assay: TXK enzyme activity, IMAP assay; format: biochemical; details: 60 min pre-incubation; 1 μM ATP
Procedure: TXK enzyme activity is measured using the IMAP (immobilized metal ion affinity-based fluorescence polarization) assay as outlined below.
TXK enzyme (Millipore #14-761), is diluted to 2.5 U/mL in KR buffer (10 mM Tris-HCl, 10 mM MgCl2, 0.01% Tween-20, 0.1% NaN3, 1 mM DTT, 2 mM MnCl2, pH 7.5).
as §1
The assay is performed as follows: 5 μL/well of test compound in KR buffer (final DMSO concentration in the assay is 1%) is mixed with 5 μL/well of 2.5 U/mL TXK enzyme (final concentration in the assay is 0.625 U/mL (4.4 nM)). Test compounds and TXK enzyme are pre-incubated 60 minutes at room temperature, before adding 5 μL/well of 200 nM Fluorescin labeled substrate peptide (Blk/Lyntide substrate #R7188, Molecular Devices) in KR-buffer. Final peptide substrate concentration in assay is 50 nM. […] Following incubation for 2 hours at room temperature the enzyme reaction is stopped by adding 40 μL/well IMAP Progressive Binding Solution (according to suppliers (Molecular Devices) protocol using 60% 1× buffer A and 40% 1× buffer B with 800× diluted beads (Progressive Binding System, Molecular Devices). After 60 min incubation at room temperature in the dark the FP signal is read. Fluorescence at 535 nm is measured using parallel and perpendicular filters to determine differences in rotation due to binding of the phosphorylated substrate peptide to the beads. Values are calculated as percentage of the difference in readout (ΔmPi) of the controls with and without ATP. IC50 values are determined by curve fitting of the experimental results using Activity Base.

[5] = test system: CD69 in CD19+ B cells of anti-IgM stimulated PBMCs; assay: Human peripheral blood mononuclear cell (PBMC) CD69 assay; format: cell-based; details: 2 h compound, then anti-IgM 18 hours
Procedure: Example 44—Human Peripheral Blood Mononuclear Cell (PBMC) CD69 Assay
Whole blood was collected in heparin-coated Vacutainer tubes (BD Biosciences, San Jose, Calif.) and used for isolation of PBMCs using Ficoll-Hypaque (Pharmacia, Uppsala, Sweden). Isolated PBMCs were cryopreserved in 90% FCS/10% DMSO until later use.
Cells from cryogenic storage were thawed in a 37° C. water bath, diluted with RPMI/1% FCS, washed 2 times, and then plated at 1×10^5 cells per well in RPMI/10% FCS.
Serial dilutions log 10 from 10 mM to 316 nM of test compounds are made in 100% DMSO, followed by a 100-fold dilution into RPMI/1% FCS. For each well, 10 μL was then transferred to the deep well plate containing 90 μL of PBMC cells. Final compound concentration range in the assay ranged from 10 μM to 0.316 nM, with a final DMSO concentration of 0.1%. PBMCs are then incubated for 2 h at 37° C. in presence or absence of test compounds, prior to stimulation with goat F(ab′)2 anti-IgM (Southern Biotech, #2022-14, final concentration in assay 5 μg/mL) for 18 hours.
Following stimulation with anti-IgM, PBMCs were incubated on ice for 30 min with anti-CD69-FITC, anti-CD19-BV421 (BD Biosciences #555530 and #562440, respectively) and 7AAD (Life Technologies #A1310). Flow cytometry was performed and fluorescence values were obtained from the CD69-FITC channel in CD19+ gated life B cells. ECso values are determined by curve fitting of the experimental results using GraphPad Prism.

[6] = biological target: ITK (Homo sapiens (Human), UniProt Q08881); assay: ITK enzyme activity, IMAP assay; format: biochemical; details: 60 min pre-incubation; 5 μM ATP
Procedure: ITK enzyme activity is measured using the IMAP (immobilized metal ion affinity-based fluorescence polarization) assay as outlined below.
ITK enzyme (Millipore #14-660M) is diluted to 0.2 U/mL in KR buffer (10 mM Tris-HCl, 10 mM MgCl2, 0.01% Tween-20, 0.1% NaN3, 1 mM DTT, 2 mM MnCl2, pH 7.5)
as §2
as §3, with “ITK” for “BMX”, “#R8124,” for “#R7188,”

Sequence of EGFR WT (P00533 25-1210): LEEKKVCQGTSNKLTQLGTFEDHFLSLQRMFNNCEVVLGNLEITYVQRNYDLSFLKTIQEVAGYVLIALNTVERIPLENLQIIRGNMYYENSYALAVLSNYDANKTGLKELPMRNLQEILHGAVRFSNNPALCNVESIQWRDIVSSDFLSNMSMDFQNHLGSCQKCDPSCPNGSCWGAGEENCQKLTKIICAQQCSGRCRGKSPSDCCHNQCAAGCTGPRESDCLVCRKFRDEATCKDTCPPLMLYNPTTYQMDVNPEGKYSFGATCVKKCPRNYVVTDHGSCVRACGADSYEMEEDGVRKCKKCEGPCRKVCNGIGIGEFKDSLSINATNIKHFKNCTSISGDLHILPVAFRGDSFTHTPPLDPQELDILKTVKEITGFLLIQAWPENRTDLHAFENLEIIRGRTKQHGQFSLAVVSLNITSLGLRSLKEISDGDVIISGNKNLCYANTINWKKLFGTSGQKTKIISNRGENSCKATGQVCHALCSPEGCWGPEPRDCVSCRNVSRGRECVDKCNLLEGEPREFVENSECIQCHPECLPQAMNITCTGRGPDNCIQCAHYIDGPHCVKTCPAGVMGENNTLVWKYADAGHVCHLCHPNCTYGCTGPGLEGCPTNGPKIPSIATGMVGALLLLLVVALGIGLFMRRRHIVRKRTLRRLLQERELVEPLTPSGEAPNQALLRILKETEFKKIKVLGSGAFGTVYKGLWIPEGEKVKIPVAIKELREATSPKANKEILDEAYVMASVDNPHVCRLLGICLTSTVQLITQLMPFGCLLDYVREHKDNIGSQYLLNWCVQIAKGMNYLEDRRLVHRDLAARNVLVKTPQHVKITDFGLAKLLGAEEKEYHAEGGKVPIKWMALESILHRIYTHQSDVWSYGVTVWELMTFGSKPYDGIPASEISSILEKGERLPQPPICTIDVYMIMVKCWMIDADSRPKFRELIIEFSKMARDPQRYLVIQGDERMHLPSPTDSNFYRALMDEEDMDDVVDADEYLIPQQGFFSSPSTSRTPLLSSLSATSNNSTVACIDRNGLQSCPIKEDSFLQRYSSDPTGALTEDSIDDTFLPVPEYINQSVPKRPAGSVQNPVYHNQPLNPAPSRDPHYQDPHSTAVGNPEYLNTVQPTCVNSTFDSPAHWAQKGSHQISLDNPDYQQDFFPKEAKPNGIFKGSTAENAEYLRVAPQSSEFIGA
Sequence of BTK (Q06187 whole entry): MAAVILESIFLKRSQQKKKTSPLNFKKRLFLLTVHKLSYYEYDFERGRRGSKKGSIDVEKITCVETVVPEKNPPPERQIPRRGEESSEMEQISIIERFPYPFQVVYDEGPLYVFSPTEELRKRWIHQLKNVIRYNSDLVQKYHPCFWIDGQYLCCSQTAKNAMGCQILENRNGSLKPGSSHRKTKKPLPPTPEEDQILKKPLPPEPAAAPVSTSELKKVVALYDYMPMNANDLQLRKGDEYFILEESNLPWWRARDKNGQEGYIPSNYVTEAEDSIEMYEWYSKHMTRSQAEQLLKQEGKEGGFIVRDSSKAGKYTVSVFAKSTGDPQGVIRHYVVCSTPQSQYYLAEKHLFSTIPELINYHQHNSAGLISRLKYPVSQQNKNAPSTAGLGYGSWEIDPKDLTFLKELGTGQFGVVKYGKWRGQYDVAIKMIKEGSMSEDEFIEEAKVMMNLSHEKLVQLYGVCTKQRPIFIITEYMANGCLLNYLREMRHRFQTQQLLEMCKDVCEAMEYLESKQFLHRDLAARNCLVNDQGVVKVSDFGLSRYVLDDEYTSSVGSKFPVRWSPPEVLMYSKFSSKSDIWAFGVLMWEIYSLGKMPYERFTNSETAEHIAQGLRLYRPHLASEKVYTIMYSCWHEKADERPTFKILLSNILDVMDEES
Sequence of ITK (Q08881 whole entry): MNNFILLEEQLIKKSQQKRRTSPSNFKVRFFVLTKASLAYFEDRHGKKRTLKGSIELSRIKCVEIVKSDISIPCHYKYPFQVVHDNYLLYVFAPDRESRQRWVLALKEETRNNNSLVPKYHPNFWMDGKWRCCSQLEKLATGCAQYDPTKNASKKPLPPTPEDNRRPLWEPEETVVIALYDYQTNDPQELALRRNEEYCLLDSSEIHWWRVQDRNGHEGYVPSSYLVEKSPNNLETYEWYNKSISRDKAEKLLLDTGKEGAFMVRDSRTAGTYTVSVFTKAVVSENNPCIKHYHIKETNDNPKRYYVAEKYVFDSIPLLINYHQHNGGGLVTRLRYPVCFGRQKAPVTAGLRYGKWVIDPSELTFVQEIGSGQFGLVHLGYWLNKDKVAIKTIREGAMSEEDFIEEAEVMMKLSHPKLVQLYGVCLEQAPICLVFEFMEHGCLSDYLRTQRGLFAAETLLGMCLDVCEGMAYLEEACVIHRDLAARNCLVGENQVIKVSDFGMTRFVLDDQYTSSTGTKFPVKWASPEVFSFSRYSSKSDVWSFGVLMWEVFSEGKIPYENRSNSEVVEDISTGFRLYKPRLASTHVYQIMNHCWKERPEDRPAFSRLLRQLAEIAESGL
Sequence of Bmx (P51813 whole entry): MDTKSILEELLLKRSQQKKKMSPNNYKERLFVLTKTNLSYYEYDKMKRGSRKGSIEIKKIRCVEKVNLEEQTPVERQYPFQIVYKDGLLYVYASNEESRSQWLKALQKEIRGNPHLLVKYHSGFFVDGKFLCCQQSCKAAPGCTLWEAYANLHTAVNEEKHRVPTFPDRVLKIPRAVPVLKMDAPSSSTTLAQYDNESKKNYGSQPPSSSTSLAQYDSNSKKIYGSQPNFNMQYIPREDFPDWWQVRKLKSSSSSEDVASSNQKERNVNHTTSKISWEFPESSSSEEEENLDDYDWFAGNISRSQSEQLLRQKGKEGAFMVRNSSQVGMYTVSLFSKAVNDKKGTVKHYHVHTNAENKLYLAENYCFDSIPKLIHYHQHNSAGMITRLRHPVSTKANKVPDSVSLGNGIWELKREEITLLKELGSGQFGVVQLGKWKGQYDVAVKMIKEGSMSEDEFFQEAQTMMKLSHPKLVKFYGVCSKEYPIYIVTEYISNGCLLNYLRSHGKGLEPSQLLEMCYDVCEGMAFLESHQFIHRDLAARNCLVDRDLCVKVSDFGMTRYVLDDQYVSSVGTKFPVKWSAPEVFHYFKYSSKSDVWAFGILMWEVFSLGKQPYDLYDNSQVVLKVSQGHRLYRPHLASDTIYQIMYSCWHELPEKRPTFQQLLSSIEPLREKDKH
Sequence of Txk (P42681 whole entry): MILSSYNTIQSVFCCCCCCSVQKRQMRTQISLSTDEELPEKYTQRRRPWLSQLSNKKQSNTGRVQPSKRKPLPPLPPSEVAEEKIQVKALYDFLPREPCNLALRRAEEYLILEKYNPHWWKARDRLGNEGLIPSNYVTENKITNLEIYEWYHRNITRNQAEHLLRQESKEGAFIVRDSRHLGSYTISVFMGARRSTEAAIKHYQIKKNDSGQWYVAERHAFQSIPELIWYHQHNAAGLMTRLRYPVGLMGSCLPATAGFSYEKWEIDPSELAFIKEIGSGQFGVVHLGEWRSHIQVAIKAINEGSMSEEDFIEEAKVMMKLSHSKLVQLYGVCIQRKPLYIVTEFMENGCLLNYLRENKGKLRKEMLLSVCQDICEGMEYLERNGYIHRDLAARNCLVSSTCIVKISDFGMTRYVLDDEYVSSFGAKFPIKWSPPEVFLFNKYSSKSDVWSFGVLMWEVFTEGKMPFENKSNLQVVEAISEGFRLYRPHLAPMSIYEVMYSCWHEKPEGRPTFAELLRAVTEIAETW

SMILES | IC50 [1] [nM] | IC50 [2] [nM] | IC50 [3] [nM] | IC50 [4] [nM] | EC50 ([5]; Homo sapiens, PBMC) [nM] | IC50 [6] [nM] | EC50 ([5]; PBMC) [nM] | EC50 [5] [nM]
CC#CC(=O)N[C@@H](C)c1nc(-c2ccc(C(=O)Nc3ccccn3)c(OC)c2)c2c(N)nccn12 | 1.6 | > 1000 | 3.1 | 2 | 1.3 | > 1000 | – | –
CC#CC(=O)N(C)[C@@H](C)c1nc(-c2ccc(C(=O)Nc3ccccn3)c(OC)c2)c2c(N)nccn12 | 2 | > 1000 | 4.2 | 3 | 2.4 | > 1000 | – | –
CC#CC(=O)N1CCC[C@H]1c1nc(-c2ccc(C(=O)Nc3nccs3)c(OC)c2)c2c(N)nccn12 | 3.9 | > 1000 | 12 | 7.1 | 11 | > 1000 | – | –
CC#CC(=O)N1CCC[C@H]1c1nc(-c2ccc(C(=O)Nc3ccc(C)cn3)c(OC)c2)c2c(N)nccn12 | 6.7 | > 1000 | 11 | 11 | 5.2 | > 1000 | – | –
CC#CC(=O)N[C@@H](C)c1nc(-c2ccc(C(=O)Nc3ccc(C)cn3)cc2)c2c(N)nccn12 | 1.6 | – | 2.9 | 2.1 | 1 | 287 | – | –
CC#CC(=O)N[C@@H](C)c1nc(-c2ccc(C(=O)Nc3ccc(C)cn3)c(OC)c2)c2c(N)nccn12 | 1.9 | > 1000 | 2.4 | 1.7 | 1.3 | > 1000 | – | –
CC#CC(=O)N(C)[C@@H](C)c1nc(-c2ccc(C(=O)Nc3ccc(C)cn3)cc2)c2c(N)nccn12 | 1.8 | 354 | 4.5 | 3.9 | 1.7 | 254 | – | –
CC#CC(=O)N(C)[C@@H](C)c1nc(-c2ccc(C(=O)Nc3ccccn3)cc2)c2c(N)nccn12 | 2.1 | 123 | 7.5 | 3.7 | 1.9 | > 1000 | – | –
COC/C=C/C(=O)N(C)[C@@H](C)c1nc(-c2ccc(C(=O)Nc3ccc(C)cn3)cc2)c2c(N)nccn12 | 11 | – | 15 | 14 | 3.5 | – | – | –
COC/C=C/C(=O)N[C@@H](C)c1nc(-c2ccc(C(=O)Nc3ccc(C)cn3)cc2)c2c(N)nccn12 | 2.4 | 360 | 2.9 | 1.5 | 4.2 | 478 | – | –
CC#CC(=O)N[C@@H](C)c1nc(-c2ccc(C(=O)Nc3cc(C(F)(F)F)ccn3)cc2)c2c(N)nccn12 | 1.8 | 327 | 1.9 | 1.8 | 0.7 | 119 | – | –
CC#CC(=O)N[C@@H](C)c1nc(-c2ccc(C(=O)Nc3cc(C(F)(F)F)ccn3)c(OC)c2)c2c(N)nccn12 | 2.2 | > 1000 | 3.5 | 4.7 | 1.4 | > 1000 | – | –
COC/C=C/C(=O)N[C@@H](C)c1nc(-c2ccc(C(=O)Nc3ccc(C)cn3)c(OC)c2)c2c(N)nccn12 | 3.9 | > 1000 | 3 | 2.7 | 1.9 | > 1000 | – | –
CC#CC(=O)N(C)[C@@H](C)c1nc(-c2ccc(C(=O)Nc3cc(C(F)(F)F)ccn3)c(OC)c2)c2c(N)nccn12 | 3.5 | > 1000 | 7.9 | 13 | 2.7 | > 1000 | – | –
CC#CC(=O)N1CCC[C@H]1c1nc(-c2ccc(C(=O)Nc3cscn3)cc2)c2c(N)nccn12 | 6.3 | – | – | 33.5 | – | > 1000 | 9.5 | –
CC#CC(=O)N(C)[C@@H](C)c1nc(-c2ccc(C(=O)Nc3ccc(C)cn3)c(OC)c2)c2c(N)nccn12 [drawing 83] | 4.2 | – | 16 | 12 | 3.7 | – | – | –
CC#CC(=O)N(C)[C@@H](C)c1nc(-c2ccc(C(=O)Nc3ccc(C)cn3)c(OC)c2)c2c(N)nccn12 [drawing 89] | 5.1 | – | 6.8 | 5.1 | – | – | – | 5.1
